Source: PubChem BioAssay (NCI)
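Interpolation was linear, between the two tested concentrations surrounding the appropriate level; five concentrations were tested over 48 hours in 96-well plates. Abbreviation: GI50, concentration required for 50% inhibition of growth. TGI is the concentration that stops growth completely.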

Key:
Assay in all cases: NCI anticancer screen, dose series, 48 h
[1] = tested on: ACHN renal
[2] = tested on: MDA-MB-435
[3] = tested on: SK-MEL-5 melanoma
[4] = tested on: SNB-19 CNS
[5] = tested on: 786-0 renal
[6] = tested on: OVCAR-4 ovarian
[7] = tested on: HCC-2998 colon
[8] = tested on: HT29 colon
[9] = tested on: NCI-H522 lung
[10] = tested on: MOLT-4 leukemia
[11] = tested on: A498 renal
[12] = tested on: K-562 leukemia
[13] = tested on: SK-OV-3 ovarian
[14] = tested on: NCI-H23 lung
[15] = tested on: UACC-257 melanoma
[16] = tested on: HL-60(TB) leukemia
[17] = tested on: HOP-92 NSCLC
[18] = tested on: UACC-62 melanoma
[19] = tested on: LOX IMVI melanoma
[20] = tested on: HOP-62 NSCLC
[21] = tested on: T-47D breast
[22] = tested on: BT-549 breast
[23] = tested on: OVCAR-8 ovarian
[24] = tested on: U251 CNS
[25] = tested on: OVCAR-5 ovarian
[26] = tested on: SF-539 CNS
[27] = tested on: SNB-75 CNS
[28] = tested on: SN12C renal
[29] = tested on: M14 melanoma
[30] = tested on: SF-268 CNS
[31] = tested on: CAKI-1 renal
[32] = tested on: COLO 205 colon
[33] = tested on: TK-10 renal
[34] = tested on: NCI/ADR-RES ovarian
[35] = tested on: HCT-15 colon
[36] = tested on: RPMI-8226 leukemia
[37] = tested on: SF-295 CNS
[38] = tested on: MALME-3M melanoma
[39] = tested on: NCI-H460 lung
[40] = tested on: HS 578T breast
[41] = tested on: EKVX NSCLC
[42] = tested on: HCT-116 colon
[43] = tested on: SW-620 colon
[44] = tested on: RXF 393 renal
[45] = tested on: PC-3 prostate
[46] = tested on: DU-145 prostate
[47] = tested on: IGROV1 ovarian
[48] = tested on: MCF7 breast
[49] = tested on: MDA-MB-231 breast
[50] = tested on: SK-MEL-28 melanoma
[51] = tested on: A549 NSCLC
[52] = tested on: UO-31 renal
[53] = tested on: KM12 colon
[54] = tested on: CCRF-CEM leukemia
[55] = tested on: SK-MEL-2 melanoma
[56] = tested on: OVCAR-3 ovarian
[57] = tested on: SR leukemia
[58] = tested on: NCI-H226 lung

CN1CCN(Cc2ccc(NC(=O)c3cncc(C#Cc4cnc(N)c5ccncc45)c3)cc2C(F)(F)F)CC1
GI50 [1]: 0.581 µM | TGI [1]: 4.02 µM | GI50 [2]: 0.218 µM | TGI [2]: 4 µM | GI50 [3]: 1.18 µM | TGI [3]: 3.93 µM | GI50 [4]: 3.23 µM | TGI [4]: 9.62 µM | GI50 [5]: 1.73 µM | TGI [5]: 7.48 µM | GI50 [6]: 0.283 µM | TGI [6]: 6.32 µM | GI50 [7]: 1.78 µM | TGI [7]: 7.89 µM | GI50 [8]: 0.212 µM | TGI [8]: 6.42 µM | GI50 [9]: 0.897 µM | TGI [9]: 8.51 µM | GI50 [10]: 0.328 µM | TGI [10]: 8.68 µM | GI50 [11]: 0.279 µM | TGI [11]: 1.7 µM | GI50 [12]: 0.0146 µM | TGI [12]: 5.21 µM | GI50 [13]: 0.687 µM | TGI [13]: > 50 µM | GI50 [14]: 0.9 µM | TGI [14]: 6.79 µM | GI50 [15]: 0.573 µM | TGI [15]: 4.68 µM | GI50 [16]: 0.387 µM | TGI [16]: 2.89 µM | GI50 [17]: 0.306 µM | TGI [17]: 1.93 µM | GI50 [18]: 0.227 µM | TGI [18]: 1.86 µM | GI50 [19]: 0.176 µM | TGI [19]: 0.707 µM | GI50 [20]: 1.03 µM | TGI [20]: > 16.6 µM | GI50 [21]: 1.75 µM | TGI [21]: 12.5 µM | GI50 [22]: 2.22 µM | TGI [22]: > 46.6 µM | GI50 [23]: 1.42 µM | TGI [23]: 8.86 µM | GI50 [24]: 0.782 µM | TGI [24]: 7.65 µM | GI50 [25]: 0.855 µM | TGI [25]: > 50 µM | GI50 [26]: 0.484 µM | TGI [26]: 2.03 µM | GI50 [27]: 0.898 µM | TGI [27]: 5.08 µM | GI50 [28]: 0.837 µM | TGI [28]: > 50 µM | GI50 [29]: 0.141 µM | TGI [29]: 0.547 µM | GI50 [30]: 0.972 µM | TGI [30]: 6.89 µM | GI50 [31]: 1.59 µM | TGI [31]: > 16.3 µM | GI50 [32]: 0.181 µM | TGI [32]: 1.95 µM | GI50 [33]: 1.56 µM | TGI [33]: 7.84 µM | GI50 [34]: 6.74 µM | TGI [34]: 16.5 µM | GI50 [35]: 1.42 µM | TGI [35]: 5.84 µM | GI50 [36]: 1.09 µM | TGI [36]: 5.77 µM | GI50 [37]: 2.16 µM | TGI [37]: > 50 µM | GI50 [38]: 0.106 µM | TGI [38]: 0.404 µM | GI50 [39]: 0.374 µM | TGI [39]: 5.81 µM | GI50 [40]: 0.286 µM | TGI [40]: 1.98 µM | GI50 [41]: 1.44 µM | TGI [41]: > 16.8 µM | GI50 [42]: 0.442 µM | TGI [42]: 3.04 µM | GI50 [43]: 0.418 µM | TGI [43]: 3.46 µM | GI50 [44]: 0.516 µM | TGI [44]: 2.28 µM | GI50 [45]: 1.77 µM | TGI [45]: 9.18 µM | GI50 [46]: 0.527 µM | TGI [46]: 6.67 µM | GI50 [47]: 0.331 µM | TGI [47]: 2.89 µM | GI50 [48]: 1.93 µM | TGI [48]: 8.92 µM | GI50 [49]: 0.307 µM | TGI [49]: 1.26 µM | GI50 [50]: 0.245 µM | TGI [50]: 2.18 µM | GI50 [51]: 1.38 µM | TGI [51]: 6.92 µM | GI50 [52]: 0.918 µM | TGI [52]: 2.49 µM | GI50 [53]: 0.027 µM | TGI [53]: 5.52 µM | GI50 [54]: 0.554 µM | TGI [54]: 11.6 µM | GI50 [55]: 0.3 µM | TGI [55]: 1.07 µM | GI50 [56]: 1.53 µM | TGI [56]: 7.51 µM | GI50 [57]: 0.567 µM | TGI [57]: > 24.5 µM

Nc1ncnc2[nH]ncc12
GI50 [1]: 0.535 µM | TGI [1]: > 100 µM | GI50 [2]: 0.58 µM | TGI [2]: > 56 µM | GI50 [3]: 4.18 µM | TGI [3]: 24.5 µM | GI50 [4]: 13.8 µM | TGI [4]: > 100 µM | GI50 [5]: 0.623 µM | TGI [5]: 21.2 µM | GI50 [6]: 0.277 µM | TGI [6]: 37.9 µM | GI50 [7]: 0.251 µM | TGI [7]: 4.85 µM | GI50 [8]: 1.83 µM | TGI [8]: > 94.5 µM | GI50 [9]: 0.649 µM | TGI [9]: 9.48 µM | GI50 [10]: 2.64 µM | TGI [10]: > 100 µM | GI50 [11]: 0.853 µM | TGI [11]: 20.4 µM | GI50 [12]: 0.279 µM | TGI [12]: > 100 µM | GI50 [13]: 0.315 µM | TGI [13]: 4.71 µM | GI50 [14]: 1.59 µM | TGI [14]: 38.1 µM | GI50 [15]: 0.983 µM | TGI [15]: 14.2 µM | GI50 [16]: 0.361 µM | TGI [16]: 2.56 µM | GI50 [17]: 0.431 µM | TGI [17]: 3.61 µM | GI50 [18]: 0.512 µM | TGI [18]: 3.48 µM | GI50 [19]: 0.34 µM | TGI [19]: > 41 µM | GI50 [20]: 2.23 µM | TGI [20]: > 100 µM | GI50 [21]: 0.265 µM | TGI [21]: 4.52 µM | GI50 [22]: 1.98 µM | TGI [22]: 74.9 µM | GI50 [23]: 0.285 µM | TGI [23]: 16.6 µM | GI50 [24]: 4.83 µM | TGI [24]: > 100 µM | GI50 [25]: 0.765 µM | TGI [25]: > 100 µM | GI50 [26]: 4.17 µM | TGI [26]: > 100 µM | GI50 [27]: 2.1 µM | TGI [27]: > 100 µM | GI50 [28]: 1.3 µM | TGI [28]: > 100 µM | GI50 [29]: 0.442 µM | TGI [29]: 12.4 µM | GI50 [30]: 4.19 µM | TGI [30]: > 100 µM | GI50 [31]: 0.11 µM | TGI [31]: 1.44 µM | GI50 [32]: 1.55 µM | TGI [32]: > 67.3 µM | GI50 [33]: 0.589 µM | TGI [33]: > 47.6 µM | GI50 [34]: 0.388 µM | TGI [34]: 12.2 µM | GI50 [35]: 0.281 µM | TGI [35]: > 100 µM | GI50 [36]: 0.378 µM | TGI [36]: 14.3 µM | GI50 [58]: 4.04 µM | TGI [58]: > 100 µM | GI50 [37]: 0.401 µM | TGI [37]: 6.37 µM | GI50 [39]: 2.1 µM | TGI [39]: > 100 µM | GI50 [40]: 7.32 µM | TGI [40]: > 100 µM | GI50 [41]: 2.6 µM | TGI [41]: > 79.9 µM | GI50 [42]: 0.511 µM | TGI [42]: 10.5 µM | GI50 [43]: 0.646 µM | TGI [43]: > 100 µM | GI50 [44]: 0.86 µM | TGI [44]: > 28.6 µM | GI50 [45]: 0.526 µM | TGI [45]: > 55.7 µM | GI50 [46]: 0.358 µM | TGI [46]: 18 µM | GI50 [47]: 0.744 µM | TGI [47]: 4.62 µM | GI50 [48]: 0.435 µM | TGI [48]: > 100 µM | GI50 [49]: 0.577 µM | TGI [49]: > 100 µM | GI50 [50]: 2.77 µM | TGI [50]: 99 µM | GI50 [51]: 1.72 µM | TGI [51]: > 66.8 µM | GI50 [52]: 0.232 µM | TGI [52]: 0.916 µM | GI50 [53]: 1.26 µM | TGI [53]: 18.3 µM | GI50 [54]: 3.57 µM | TGI [54]: > 100 µM | GI50 [55]: 0.369 µM | TGI [55]: 2.91 µM | GI50 [56]: 0.863 µM | TGI [56]: 4.38 µM | GI50 [57]: 0.445 µM | TGI [57]: > 100 µM
